Paper PMC4738246, “Conformational dynamics is key to understanding loss-of-function of NQO1 cancer-associated polymorphisms and its correction by pharmacological ligands” (Scientific Reports, 2016)
Like-named read-outs stand apart in the source and are kept apart here.

Assays:
NQO1 WT [1] = biological target: T1, NQO1 WT (Homo sapiens, UniProt P15559); design: made in house; settings: FAD binding to WT, two-sequential binding sites model, average of two titrations, cited from earlier work
NQO1 p.R139W [2] = biological target: T2, NQO1 p.R139W (Homo sapiens, UniProt P15559, R139W); design: made in house; settings: FAD binding to p.R139W, two-sequential binding sites model, average of two titrations, cited from earlier work
NQO1 p.P187S [3] = biological target: T3, NQO1 p.P187S (Homo sapiens, UniProt P15559, P187S); design: made in house; settings: FAD binding to p.P187S; single set of sites model; average of two titrations; read-out: Kd1; cited from earlier work
NQO1 WT [4] = biological target: T1, NQO1 WT; assay: Proteolysis by thermolysin, WT NQO1; settings: WT apo-protein vs as purified
Description: (§2) Proteolysis was performed at 25 °C in HEPES-KOH 50 mM CaCl2 10 mM pH 7.4 using 20 μM in NQO1 (monomer), and the reaction was initiated by the addition of thermolysin (at a final concentration of 10 pM-1 μM) in a final volume of 200 μL. Proteolysis reactions were performed using the NQO1 proteins as purified or as apo-proteins. […] After normalization of the intensities using that of the control sample in the absence of thermolysin, the Intensity (I) vs. Time (t) profiles were analyzed using a single exponential function:
(§3) where k is the proteolysis rate constant and I0 the initial intensity.

NQO1 p.P187S [5] = biological target: T3, NQO1 p.P187S; assay: Binding affinity by ITC, p.P187S NQO1; settings: FAD and dicoumarol stated together
Description: After peak integration, binding isotherms were analyzed using a one-type of independent sites model using the software provided by the manufacturer.

NQO1 p.R139W [6] = biological target: T2, NQO1 p.R139W; assay: Proteolysis by thermolysin, p.R139W NQO1; settings: p.R139W apo-protein vs as purified
Description: as §2, §3

[7] = system: Caco-2 cells (homozygous for p.P187S); assay: Steady-state NQO1 protein levels by immunoblotting, Caco-2 cells; type: cell-based, human; settings: 24 h, dicoumarol 100 μM, riboflavin 10 μM, normalized to untreated cells
Description: (§1) After transferring to polyvinylidene difluoride membranes (GE Healthcare), immunoblotting was carried out using primary monoclonal antibodies anti-NQO1 and anti-β-actin (Santa Cruz Biotechnology) from mouse at 1:500 and 1:10000 dilutions, respectively. As secondary antibody, we used goat anti-mouse IgG-HRP (Santa Cruz Biotechnology) at 1:1000 dilution. Chemiluminiscent detection of bands was carried out using Clarity™ Western ECL Blotting Substrate (Biorad) and analyzed using a luminescent image analyzer LAS-4000 mini (Fujifilm).

[8] = system: HCT 116 cells (heterozygous for p.R139W); settings: 24 h, dicoumarol 100 μM, riboflavin 10 μM
Description: as §1

[9] = system: HeLa cells (expressing WT NQO1); settings: 24 h, dicoumarol 100 μM, riboflavin 10 μM
Description: as §1

T2 sequence (P15559 whole entry R139W): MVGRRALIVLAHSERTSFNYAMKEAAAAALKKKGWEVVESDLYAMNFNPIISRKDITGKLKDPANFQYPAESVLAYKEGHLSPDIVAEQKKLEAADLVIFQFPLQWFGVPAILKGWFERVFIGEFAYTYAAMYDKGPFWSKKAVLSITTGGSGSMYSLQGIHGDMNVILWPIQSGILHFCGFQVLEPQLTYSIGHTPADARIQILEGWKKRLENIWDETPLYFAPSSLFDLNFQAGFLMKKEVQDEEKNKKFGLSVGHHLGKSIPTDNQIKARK
T1 sequence (P15559 whole entry): as the sequence (P15559 whole entry R139W) above, with W139R counted along it
T3 sequence (P15559 whole entry P187S): as the sequence (P15559 whole entry R139W) above, with W139R, P187S counted along it

Structure (SMILES) | Kd (NQO1 WT [1]; read-out: Kd1) | Kd (NQO1 WT [1]; read-out: Kd2) | Kd (NQO1 p.R139W [2]; read-out: Kd1) | Kd (NQO1 p.R139W [2]; read-out: Kd2) | Kd (NQO1 p.P187S [3]) | increase in the sensitivity towards thermolysin on removal of FAD (NQO1 WT [4]) | lower affinity of p.P187S than the WT enzyme (NQO1 p.P187S [5]) | increase in the sensitivity towards thermolysin on removal of FAD (NQO1 p.R139W [6]) | enhancement of steady-state levels of p.P187S NQO1 protein [7] | effect on protein levels of p.R139W NQO1 [8] | effect on protein levels of WT NQO1 [9]
Cc1cc2nc3c(=O)[nH]c(=O)nc-3n(C[C@H](O)[C@H](O)[C@H](O)COP(=O)(O)OP(=O)(O)OC[C@H]3O[C@@H](n4cnc5c(N)ncnc54)[C@H](O)[C@@H]3O)c2cc1C [FAD] | ~0.001 µM | 0.06 µM | ~0.003 µM | 0.07 µM | 0.4 µM | 200 fold | 10–100 fold | 200 fold | – | – | –
Cc1cc2nc3c(=O)[nH]c(=O)nc-3n(C[C@H](O)[C@H](O)[C@H](O)CO)c2cc1C [riboflavin] | – | – | – | – | – | – | – | – | much lower effect | small effects | small effects
